Assay results taken from ChEMBL document CHEMBL1201861, “Genomics of Drug Sensitity in Cancer screening data, Wellcome Trust Sanger Institute”.

How the values were obtained:
Experiment in all cases: cells
[1] = test system: OVCAR-3; format: functional, cell-based; conditions: Homo sapiens;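 also: growth inhibition of human OVCAR-3 cells, determined by a cell viability assay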
Description: SANGER: Inhibition of human OVCAR-3 cell growth in a cell viability assay.

[2] = test system: NCI-H2122; format: functional, cell-based; conditions: Homo sapiens;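 also: growth inhibition of the cells, read out with a cell viability assay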
Description: SANGER: Inhibition of human NCI-H2122 cell growth in a cell viability assay.

[3] = test system: KYSE-450; format: functional, cell-based; conditions: Homo sapiens;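 also: cell growth inhibition measured by a viability assay in human KYSE-450 cells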
Description: SANGER: Inhibition of human KYSE-450 cell growth in a cell viability assay.

[4] = test system: MHH-ES-1; format: functional, cell-based; conditions: Homo sapiens;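 also: cell growth inhibition measured by a cell viability assay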
Description: SANGER: Inhibition of human MHH-ES-1 cell growth in a cell viability assay.

[5] = test system: HuO-3N1; format: functional, cell-based; conditions: Homo sapiens;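 also: cell viability readout used to measure how strongly compounds suppress proliferation of human HuO-3N1 cells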
Description: SANGER: Inhibition of human HuO-3N1 cell growth in a cell viability assay.

[6] = test system: KYSE-180; format: functional, cell-based; conditions: Homo sapiens;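 also: growth inhibition of KYSE-180 cells, read out with a cell viability assay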
Description: SANGER: Inhibition of human KYSE-180 cell growth in a cell viability assay.

[7] = test system: SW948; format: functional, cell-based; conditions: Homo sapiens;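 also: growth inhibition of SW948 cells, read out with a cell viability assay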
Description: SANGER: Inhibition of human SW948 cell growth in a cell viability assay.

[8] = test system: KU-19-19; format: functional, cell-based; conditions: Homo sapiens
Description: SANGER: Inhibition of human KU-19-19 cell growth in a cell viability assay.

[9] = test system: MDA-MB-157; format: functional, cell-based; conditions: Homo sapiens
Description: SANGER: Inhibition of human MDA-MB-157 cell growth in a cell viability assay.

[10] = test system: NCI-H292; format: functional, cell-based; conditions: Homo sapiens;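 also: growth inhibition of NCI-H292 cells, read out with a cell viability assay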
Description: SANGER: Inhibition of human NCI-H292 cell growth in a cell viability assay.

[11] = test system: CAL-85-1; format: functional, cell-based; conditions: Homo sapiens;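 also: growth inhibition of human CAL-85-1 cells, read out with a cell viability assay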
Description: SANGER: Inhibition of human CAL-85-1 cell growth in a cell viability assay.

[12] = test system: UO-31; format: functional, cell-based; conditions: Homo sapiens;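 also: cell viability assay measuring inhibition of cell growth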
Description: SANGER: Inhibition of human U031 cell growth in a cell viability assay.

[13] = test system: NCI-H520; format: functional, cell-based; conditions: Homo sapiens;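 also: growth inhibition of NCI-H520 cells, measured by a cell viability assay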
Description: SANGER: Inhibition of human NCI-H520 cell growth in a cell viability assay.

[14] = test system: SCC-25; format: functional, cell-based; conditions: Homo sapiens;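 also: growth inhibition of SCC-25 cells, measured with a cell viability assay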
Description: SANGER: Inhibition of human SCC-25 cell growth in a cell viability assay.

[15] = test system: D-392MG; format: functional, cell-based; conditions: Homo sapiens
[16] = test system: BPH-1; format: functional, cell-based; conditions: Homo sapiens;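 also: cell viability assay measuring growth inhibition of human BPH-1 cells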
Description: SANGER: Inhibition of human BPH-1 cell growth in a cell viability assay.

[17] = test system: 786-0; format: functional, cell-based; conditions: Homo sapiens
Description: SANGER: Inhibition of human 786-0 cell growth in a cell viability assay.

[18] = test system: HCC1569; format: functional, cell-based; conditions: Homo sapiens;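 also: growth inhibition of human HCC1569 cells, read out with a cell viability assay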
Description: SANGER: Inhibition of human HCC1569 cell growth in a cell viability assay.

[19] = test system: GCT; format: functional, cell-based; conditions: Homo sapiens;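 also: GCT cell line proliferation inhibition, read out with a cell viability assay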
Description: SANGER: Inhibition of human GCT cell growth in a cell viability assay.

[20] = test system: RO82-W-1; format: functional, cell-based; conditions: Homo sapiens;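 also: growth inhibition of human RO82-W-1 cells, measured with a cell viability assay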
Description: SANGER: Inhibition of human RO82-W-1 cell growth in a cell viability assay.

[21] = test system: A2780; format: functional, cell-based; conditions: Homo sapiens;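 also: growth inhibition of A2780 cells, read out with a cell viability assay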
Description: SANGER: Inhibition of human A2780 cell growth in a cell viability assay.

[22] = test system: NCI-H2347; format: functional, cell-based; conditions: Homo sapiens;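 also: growth inhibition of the cell line, read out with a cell viability assay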
Description: SANGER: Inhibition of human NCI-H2347 cell growth in a cell viability assay.

[23] = test system: H4; format: functional, cell-based; conditions: Homo sapiens
Description: SANGER: Inhibition of human H4 cell growth in a cell viability assay.

[24] = test system: SW1990; format: functional, cell-based; conditions: Homo sapiens;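 also: cell growth inhibition determined with a viability assay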
Description: SANGER: Inhibition of human SW1990 cell growth in a cell viability assay.

[25] = test system: COLO-792; format: functional, cell-based; conditions: Homo sapiens
Description: SANGER: Inhibition of human COLO-792 cell growth in a cell viability assay.

[26] = test system: NB14; format: functional, cell-based, Homo sapiens; conditions: Homo sapiens, NB14;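 also: growth inhibition of NB14 cells measured with a cell viability assay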
Description: SANGER: Inhibition of human NB14 cell growth in a cell viability assay.

[27] = test system: UMC-11; format: functional, cell-based; conditions: Homo sapiens;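 also: growth inhibition of UMC-11 cells, read out with a cell viability assay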
Description: SANGER: Inhibition of human UMC-11 cell growth in a cell viability assay.

[28] = test system: P12-Ichikawa; format: functional, cell-based; conditions: Homo sapiens
[29] = test system: MIA PaCa-2; format: functional, cell-based; conditions: Homo sapiens;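 also: growth inhibition of MIA PaCa-2 cells, read out with a cell viability assay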
Description: SANGER: Inhibition of human MIA-PaCa-2 cell growth in a cell viability assay.

[30] = test system: HSC-3; format: functional, cell-based; conditions: Homo sapiens
Description: SANGER: Inhibition of human HSC-3 cell growth in a cell viability assay.

[31] = test system: IGR-1; format: functional, cell-based; conditions: Homo sapiens;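 also: growth inhibition of human IGR-1 cells, read out with a cell viability assay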
Description: SANGER: Inhibition of human IGR-1 cell growth in a cell viability assay.

[32] = test system: DBTRG-05MG; format: functional, cell-based; conditions: Homo sapiens;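 also: cell viability assay measuring growth inhibition of human DBTRG-05MG cells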
Description: SANGER: Inhibition of human DBTRG-05MG cell growth in a cell viability assay.

[33] = test system: MDA-MB-415; format: functional, cell-based; conditions: Homo sapiens
[34] = test system: CAL-54; format: functional, cell-based; conditions: Homo sapiens;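 also: growth inhibition of CAL-54 cells, read out by a viability measurement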
Description: SANGER: Inhibition of human CAL-54 cell growth in a cell viability assay.

[35] = test system: CHP-212; format: functional, cell-based; conditions: Homo sapiens
Description: SANGER: Inhibition of human CHP-212 cell growth in a cell viability assay.

[36] = test system: HuO9; format: functional, cell-based; conditions: Homo sapiens;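 also: growth inhibition of HuO9 cells, read out with a cell viability assay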
Description: SANGER: Inhibition of human HuO9 cell growth in a cell viability assay.

[37] = test system: AU565; format: functional, cell-based; conditions: Homo sapiens;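 also: cell viability assay measuring growth inhibition of human AU565 cells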
Description: SANGER: Inhibition of human AU565 cell growth in a cell viability assay.

[38] = test system: S-117; format: functional, cell-based; conditions: Homo sapiens
Description: SANGER: Inhibition of human S-117 cell growth in a cell viability assay.

[39] = test system: SiHa; format: functional, cell-based; conditions: Homo sapiens;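 also: Viability-based readout of growth inhibition in SiHa cells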
Description: SANGER: Inhibition of human SiHa cell growth in a cell viability assay.

[40] = test system: UACC-62; format: functional, cell-based; conditions: Homo sapiens;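 also: growth inhibition of human UACC-62 cells, read out by a cell viability assay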
Description: SANGER: Inhibition of human UACC-62 cell growth in a cell viability assay.

[41] = test system: MKN-45; format: functional, cell-based; conditions: Homo sapiens;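 also: growth inhibition of human MKN-45 cells, measured with a cell viability assay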
Description: SANGER: Inhibition of human MKN45 cell growth in a cell viability assay.

[42] = test system: NCI-H716; format: functional, cell-based, Homo sapiens; conditions: Homo sapiens, NCI-H716;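 also: growth inhibition of human NCI-H716 cells, measured by a cell viability assay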
Description: SANGER: Inhibition of human NCI-H716 cell growth in a cell viability assay.

[43] = test system: HCC1599; format: functional, cell-based, Homo sapiens; conditions: Homo sapiens, HCC1599;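 also: growth inhibition of HCC1599 cells, read out in a cell viability assay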
Description: SANGER: Inhibition of human HCC1599 cell growth in a cell viability assay.

[44] = test system: SUP-T1; format: functional, cell-based, Homo sapiens; conditions: Homo sapiens, SUP-T1;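 also: growth inhibition of human SUP-T1 cells, read out as cell viability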
Description: SANGER: Inhibition of human SUP-T1 cell growth in a cell viability assay.

[45] = test system: JIYOYE; format: functional, cell-based, Homo sapiens; conditions: Homo sapiens, JIYOYE
Description: SANGER: Inhibition of human JiyoyeP-2003 cell growth in a cell viability assay.

[46] = test system: ECC4; format: functional, cell-based, Homo sapiens; conditions: Homo sapiens, ECC4;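 also: growth inhibition of ECC4 cells, read out with a cell viability assay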
Description: SANGER: Inhibition of human ECC4 cell growth in a cell viability assay.

[47] = test system: SK-MEL-24; format: functional, cell-based; conditions: Homo sapiens;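 also: growth inhibition read out by a cell viability assay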
Description: SANGER: Inhibition of human SK-MEL-24 cell growth in a cell viability assay.

[48] = test system: CAL-148; format: functional, cell-based, Homo sapiens; conditions: Homo sapiens, CAL-148
Description: SANGER: Inhibition of human CAL-148 cell growth in a cell viability assay.

[49] = test system: SCC-3; format: functional, cell-based, Homo sapiens; conditions: Homo sapiens, SCC-3;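 also: cell viability assay measuring inhibition of SCC-3 cell growth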
Description: SANGER: Inhibition of human SCC-3 cell growth in a cell viability assay.

[50] = test system: SIG-M5; format: functional, cell-based, Homo sapiens; conditions: Homo sapiens, SIG-M5;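 also: cell viability assay read-out, measuring how strongly growth of cultured human SIG-M5 cells is inhibited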
Description: SANGER: Inhibition of human SIG-M5 cell growth in a cell viability assay.

[51] = test system: SW13; format: functional, cell-based; conditions: Homo sapiens;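 also: IC50 is inhibition of SW13 cell growth, read out with a cell viability assay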
Description: SANGER: Inhibition of human SW13 cell growth in a cell viability assay.

[52] = test system: TE-15; format: functional, cell-based, Homo sapiens; conditions: Homo sapiens, TE-15;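 also: cell viability readout of growth inhibition in TE-15 cells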
Description: SANGER: Inhibition of human TE-15 cell growth in a cell viability assay.

[53] = test system: SNU-16; format: functional, cell-based, Homo sapiens; conditions: Homo sapiens, SNU-16;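 also: growth inhibition of human SNU-16 cells, determined with a cell viability readout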
Description: SANGER: Inhibition of human NCI-SNU-16 cell growth in a cell viability assay.

[54] = test system: GDM-1; format: functional, cell-based, Homo sapiens; conditions: Homo sapiens, GDM-1; read-out: IC50;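 also: cell viability readout used to measure growth inhibition of human GDM-1 cells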
Description: SANGER: Inhibition of human GDM-1 cell growth in a cell viability assay.

[55] = test system: LU-165; format: functional, cell-based, Homo sapiens; conditions: Homo sapiens, LU-165
Description: SANGER: Inhibition of human LU-165 cell growth in a cell viability assay.

[56] = test system: P31-FUJ; format: functional, cell-based, Homo sapiens; conditions: Homo sapiens, P31-FUJ;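 also: growth inhibition of P31-FUJ cells, read out with a viability assay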
Description: SANGER: Inhibition of human P31-FUJ cell growth in a cell viability assay.

[57] = test system: TALL-1; format: functional, cell-based, Homo sapiens; conditions: Homo sapiens, TALL-1;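 also: growth inhibition of cultured human TALL-1 cells, read out by a cell viability assay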
Description: SANGER: Inhibition of human TALL-1 cell growth in a cell viability assay.

[58] = test system: RPMI-6666; format: functional, cell-based, Homo sapiens; conditions: Homo sapiens, RPMI-6666
Description: SANGER: Inhibition of human RPMI-6666 cell growth in a cell viability assay.

[59] = test system: TE-441-T; format: functional, cell-based, Homo sapiens; conditions: Homo sapiens, TE-441-T
Description: SANGER: Inhibition of human TE-441-T cell growth in a cell viability assay.

Compound: CN(C)CCOc1ccc(-c2nc(-c3ccncc3)c(-c3ccc4c(c3)CC/C4=N\O)[nH]2)cc1 [SB590885]
- IC50 [1]: > 5 µM
- IC50 [2]: > 5 µM
- IC50 [3]: > 5 µM
- IC50 [4]: > 5 µM
- IC50 [5]: > 5 µM
- IC50 [6]: > 5 µM
- IC50 [7]: > 5 µM
- IC50 [8]: > 5 µM
- IC50 [9]: > 5 µM
- IC50 [10]: 4.38 µM
- IC50 [11]: > 5 µM
- IC50 [12]: > 5 µM
- IC50 [13]: > 5 µM
- IC50 [14]: > 5 µM
- IC50 [15]: > 5 µM
- IC50 [16]: > 5 µM
- IC50 [17]: > 5 µM
- IC50 [18]: > 5 µM
- IC50 [19]: > 5 µM
- IC50 [20]: > 5 µM
- IC50 [21]: > 5 µM
- IC50 [22]: > 5 µM
- IC50 [23]: > 5 µM
- IC50 [24]: > 5 µM
- IC50 [25]: > 5 µM
- IC50 [26]: > 5 µM
- IC50 [27]: > 5 µM
- IC50 [28]: 3.44 µM
- IC50 [29]: > 5 µM
- IC50 [30]: > 5 µM
- IC50 [31]: > 5 µM
- IC50 [32]: 3.53 µM
- IC50 [33]: > 5 µM
- IC50 [34]: > 5 µM
- IC50 [35]: > 5 µM
- IC50 [36]: > 5 µM
- IC50 [37]: > 5 µM
- IC50 [38]: > 5 µM
- IC50 [39]: > 5 µM
- IC50 [40]: > 5 µM

Compound: NC1(c2ccc(-c3nc4ccn5c(=O)[nH]nc5c4cc3-c3ccccc3)cc2)CCC1 [MK-2206]
- IC50 [1]: 3.41 µM
- IC50 [2]: > 4 µM
- IC50 [3]: > 4 µM
- IC50 [4]: > 4 µM
- IC50 [5]: > 4 µM
- IC50 [6]: > 4 µM
- IC50 [7]: > 4 µM
- IC50 [8]: > 4 µM
- IC50 [9]: > 4 µM
- IC50 [10]: > 4 µM
- IC50 [11]: > 4 µM
- IC50 [13]: 0.986 µM
- IC50 [14]: > 4 µM
- IC50 [15]: > 4 µM
- IC50 [16]: > 4 µM
- IC50 [17]: > 4 µM
- IC50 [18]: > 4 µM
- IC50 [19]: > 4 µM
- IC50 [20]: > 4 µM
- IC50 [21]: > 4 µM
- IC50 [22]: > 4 µM
- IC50 [23]: 3.46 µM
- IC50 [24]: > 4 µM
- IC50 [25]: > 4 µM
- IC50 [26]: > 4 µM
- IC50 [27]: > 4 µM
- IC50 [28]: 0.116 µM
- IC50 [29]: > 4 µM
- IC50 [30]: > 4 µM
- IC50 [31]: > 4 µM
- IC50 [32]: > 4 µM
- IC50 [33]: 0.636 µM
- IC50 [34]: 1.71 µM
- IC50 [35]: > 4 µM
- IC50 [36]: 0.928 µM
- IC50 [37]: > 4 µM
- IC50 [38]: > 4 µM
- IC50 [39]: > 4 µM
- IC50 [40]: > 4 µM

Compound: OC[C@H](Cc1ccccc1)Nc1nc(Oc2ccc3c(c2)CCC3)nc2c1ncn2Cc1ccc(-c2ccccc2)cc1
- IC50 [1]: > 10.2 µM
- IC50 [2]: 2.72 µM
- IC50 [41]: > 10.2 µM
- IC50 [3]: 8.47 µM
- IC50 [4]: > 10.2 µM
- IC50 [5]: > 10.2 µM
- IC50 [6]: > 10.2 µM
- IC50 [42]: > 10.2 µM
- IC50 [7]: > 10.2 µM
- IC50 [43]: > 10.2 µM
- IC50 [8]: > 10.2 µM
- IC50 [9]: > 10.2 µM
- IC50 [10]: > 10.2 µM
- IC50 [44]: 4.97 µM
- IC50 [45]: > 10.2 µM
- IC50 [11]: 4.45 µM
- IC50 [12]: > 10.2 µM
- IC50 [13]: > 10.2 µM
- IC50 [46]: > 10.2 µM
- IC50 [14]: > 10.2 µM
- IC50 [47]: > 10.2 µM
- IC50 [15]: > 10.2 µM
- IC50 [48]: > 10.2 µM
- IC50 [16]: > 10.2 µM
- IC50 [17]: 1.26 µM
- IC50 [49]: > 10.2 µM
- IC50 [18]: > 10.2 µM
- IC50 [50]: 0.654 µM
- IC50 [51]: > 10.2 µM
- IC50 [19]: > 10.2 µM
- IC50 [52]: > 10.2 µM
- IC50 [20]: > 10.2 µM
- IC50 [21]: > 10.2 µM
- IC50 [22]: > 10.2 µM
- IC50 [23]: 1.86 µM
- IC50 [24]: > 10.2 µM
- IC50 [53]: > 10.2 µM
- IC50 [25]: 4.79 µM
- IC50 [54]: 3.33 µM
- IC50 [27]: > 10.2 µM
- IC50 [28]: 7.93 µM
- IC50 [29]: 8.88 µM
- IC50 [30]: 3.88 µM
- IC50 [31]: > 10.2 µM
- IC50 [55]: > 10.2 µM
- IC50 [32]: > 10.2 µM
- IC50 [33]: > 10.2 µM
- IC50 [34]: > 10.2 µM
- IC50 [35]: > 10.2 µM
- IC50 [56]: > 10.2 µM
- IC50 [57]: > 10.2 µM
- IC50 [37]: 6.47 µM
- IC50 [38]: 4.88 µM
- IC50 [58]: > 10.2 µM
- IC50 [39]: > 10.2 µM
- IC50 [40]: > 10.2 µM
- IC50 [59]: > 10.2 µM
